Read-outs that look alike come from different tables or passages of the source.
Target: T1, human CB2R (Homo sapiens, UniProt P34972)
T1 construct: host or cells: CHO cells
Assay: CB2R mediated modulation of cAMP synthesis (forskolin-stimulated cAMP, CHO cells expressing human CB2R)
Type: cell-based
Description: B. CB2R Mediated Modulation of cAMP Synthesis:
Compounds of the invention were evaluated for their CB2 agonist or inverse agonistic activity in accordance with the following experimental method.
CHO cells expressing human CB2R (Euroscreen) were plated at a density of 5000 cells per well in 384 well plates and incubated overnight at 37° C. After removing the media, the cells were treated with test compounds diluted in stimulation buffer containing 1 mM IBMX, 0.25% BSA and 10 uM Forskolin. The assay was incubated for 30 minutes at 37° C. Cells were lysed and the cAMP concentration was measured using DiscoverX-XS cAMP kit, following the manufacturer's protocol. In this setting, agonists will decrease forskolin induced production of cAMP while inverse agonists will further increase forskolin induced production of cAMP. EC50 of agonists were calculated as follows. The maximal amount of cAMP produced by forskolin compared to the level of cAMP inhibited by 1 uM CP55940 is defined as 100%. […] Data was analyzed using a four-parameter logistic model. (Model 205 of XLfit 4.0).

[1] = agonist EC50, inhibition of forskolin-stimulated cAMP synthesis, CHO cells expressing human CB2R, mean, read-out: CB2 CAMP @ EC50 nM (mean)

T1 sequence (P34972 whole entry): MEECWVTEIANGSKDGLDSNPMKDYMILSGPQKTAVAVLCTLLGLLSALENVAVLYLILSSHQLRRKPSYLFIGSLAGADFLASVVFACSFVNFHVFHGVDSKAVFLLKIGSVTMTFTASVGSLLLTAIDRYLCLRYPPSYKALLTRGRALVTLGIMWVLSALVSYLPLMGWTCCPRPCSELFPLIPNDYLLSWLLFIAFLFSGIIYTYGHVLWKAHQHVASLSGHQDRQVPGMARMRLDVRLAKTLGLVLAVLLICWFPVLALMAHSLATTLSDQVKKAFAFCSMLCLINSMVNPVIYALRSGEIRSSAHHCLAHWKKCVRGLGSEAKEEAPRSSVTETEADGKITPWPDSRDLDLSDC

Which EC50 [1] does the source give for `O=C(Nc1nsc(-c2ccccc2)n1)[C@@H]1CCCCN1CC1CCOCC1` [(S)-1-(Tetrahydro-pyran-4-ylmethyl)-piperidine-2-carboxylic acid (5-phenyl-1,2,4-thiadiazol-3-yl)-amide] here?
Its EC50 is 14 nM.

With `CC(C)(C)c1nnc(NC(=O)[C@@H]2CCCCN2CC2CCOCC2)s1` [(S)-1-(Tetrahydro-pyran-4-ylmethyl)-piperidine-2-carboxylic acid (5-tert-butyl-1,3,4-thiadiazol-2-yl)-amide] as the compound, how does the EC50 [1] read?
The EC50 was 1.6 nM.

How did the EC50 turn out when `O=C(Nc1ccc(C(F)(F)F)cn1)[C@@H]1CCCCN1CC1CCOCC1` [(S)-1-(Tetrahydro-pyran-4-ylmethyl)-piperidine-2-carboxylic acid (5-trifluoromethyl-pyridin-2-yl)-amide] was run?
Its EC50 is 69 nM.

For `O=C(Nc1nc2ccc(Cl)cc2s1)[C@@H]1CCCCN1CC1CCOCC1` [(S)-1-(Tetrahydro-pyran-4-ylmethyl)-piperidine-2-carboxylic acid (6-chloro-benzothiazol-2-yl)-amide], which EC50 [1] is on record?
The EC50 was 131 nM.

`O=C(Nc1nc(-c2ccc(F)c(F)c2)cs1)[C@@H]1CCCCN1CC1CCOCC1` [(S)-1-(Tetrahydro-pyran-4-ylmethyl)-piperidine-2-carboxylic acid [4-(3,4-difluoro-phenyl)-thiazol-2-yl]-amide] was tested. Which EC50 did it give?
Its EC50 is 3.6 nM.

For `CC(C)(C)c1nnc(NC(=O)[C@@H]2CCCCN2C2CCC2)s1` [(S)-1-Cyclobutyl-piperidine-2-carboxylic acid (5-tert-butyl-1,3,4-thiadiazol-2-yl)-amide], which EC50 [1] is on record?
The EC50 was 140 nM.

For `CC(C)(C)c1cc(NC(=O)[C@@H]2CCCCN2C(=O)C2CCCC2)no1` [(S)-1-Cyclopentanecarbonyl-piperidine-2-carboxylic acid (5-tert-butyl-isoxazol-3-yl)-amide], which EC50 is on record?
The EC50 was 14 nM.

`CC(C)(C)c1nnc(NC(=O)[C@@H]2CCCCN2C2CC2)s1` [(S)-1-Cyclopropyl-piperidine-2-carboxylic acid (5-tert-butyl-1,3,4-thiadiazol-2-yl)-amide] was tested. Which EC50 [1] did it give?
The EC50 was 485 nM.

`CCn1nc(NC(=O)[C@@H]2CCCCN2C(=O)CC2CCS(=O)(=O)C2)nc1-c1ccccc1` (stereo partly drawn) [(S)-1-[2-(1,1-Dioxo-tetrahydro-1λ^6-thiophen-3-yl)-acetyl]-piperidine-2-carboxylic acid (1-ethyl-5-phenyl-1H-1,2,4-triazol-3-yl)-amide] was tested. Which EC50 [1] did it give?
The EC50 was 365 nM.

How did the EC50 turn out when `CC(C)(C)c1cc(NC(=O)[C@@H]2CCCCN2C(=O)CC2CCS(=O)(=O)C2)no1` (stereo partly drawn) [(S)-1-[2-(1,1-Dioxo-tetrahydro-1λ^6-thiophen-3-yl)-acetyl]-piperidine-2-carboxylic acid (5-tert-butyl-isoxazol-3-yl)-amide] was run?
The EC50 was 7.7 nM.

With `CCn1nc(NC(=O)[C@@H]2CCCCN2C(=O)CN2CCC(F)(F)C2)nc1-c1ccccc1` [(S)-1-[2-(3,3-Difluoro-pyrrolidin-1-yl)-acetyl]-piperidine-2-carboxylic acid (1-ethyl-5-phenyl-1H-1,2,4-triazol-3-yl)-amide] as the compound, how does the EC50 [1] read?
The EC50 was 262 nM.

Which EC50 does the source give for `CC(C)(C)c1cc(NC(=O)[C@@H]2CCCCN2C(=O)CN2CCC(F)(F)C2)no1` [(S)-1-[2-(3,3-Difluoro-pyrrolidin-1-yl)-acetyl]-piperidine-2-carboxylic acid (5-tert-butyl-isoxazol-3-yl)-amide] here?
The EC50 was 2.9 nM.

For `CC(C)(C)c1cc(NC(=O)[C@@H]2CCCCN2C(=O)CN2CCC(F)(F)CC2)no1` [(S)-1-[2-(4,4-Difluoro-piperidin-1-yl)-acetyl]-piperidine-2-carboxylic acid (5-tert-butyl-isoxazol-3-yl)-amide], which EC50 is on record?
The EC50 was 34 nM.

Which EC50 does the source give for `CC(C)(C)c1cc(NC(=O)[C@@H]2CCCCN2C(=O)CN2CCC(F)CC2)no1` [(S)-1-[2-(4-Fluoro-piperidin-1-yl)-acetyl]-piperidine-2-carboxylic acid (5-tert-butyl-isoxazol-3-yl)-amide] here?
Its EC50 is 75 nM.

How did the EC50 [1] turn out when `CCc1sc(NC(=O)[C@@H]2CCCCN2C(=O)OC(C)(C)C)nc1-c1ccccc1` [(S)-2-(5-Ethyl-4-phenyl-thiazol-2-ylcarbamoyl)-piperidine-1-carboxylic acid tert-butyl ester] was run?
Its EC50 is 180 nM.

Which EC50 [1] does the source give for `CC(C)(C)OC(=O)N1CCCC[C@H]1C(=O)Nc1nnc(C(C)(C)C)s1` [(S)-2-(5-tert-Butyl-1,3,4-thiadiazol-2-ylcarbamoyl)-piperidine-1-carboxylic acid tert-butyl ester] here?
Its EC50 is 495 nM.

`CC(C)(C)OC(=O)N1CCCC[C@H]1C(=O)Nc1cc(C(C)(C)C)on1` [(S)-2-(5-tert-Butyl-isoxazol-3-ylcarbamoyl)-piperidine-1-carboxylic acid tert-butyl ester] was tested. Which EC50 [1] did it give?
The EC50 was 279 nM.

`O=C(Nc1nc(-c2ccccc2)ns1)[C@@H]1CCCCN1c1ncc(C(F)(F)F)cc1Cl` [(S)-3′-Chloro-5′-trifluoromethyl-3,4,5,6-tetrahydro-2H-1,2′-bipyridinyl-2-carboxylic acid (3-phenyl-1,2,4-thiadiazol-5-yl)-amide] was tested. Which EC50 [1] did it give?
The EC50 was 11 nM.

With `CC(C)(C)c1cc(NC(=O)[C@@H]2CCCCN2c2ncc(C(F)(F)F)cc2Cl)no1` [(S)-3′-Chloro-5′-trifluoromethyl-3,4,5,6-tetrahydro-2H-[1,2′]bipyridinyl-2-carboxylic acid (5-tert-butyl-isoxazol-3-yl)-amide] as the compound, how does the EC50 read?
The EC50 was 0.18 nM.
